How the values were obtained:
[1] = test system: primary fibroblasts (IMR90) transduced with H-RasG12V; experiment: Validation: manual quantification of SA-β-gal positive cells; type: cell-based, human; details: for % SA-β-Gal + Cells Avg: 250 nM inhibitor, +H-RasG12V IMR90, 7 additional days, >300 cells counted, triplicate
Method: Senescence-associated β-galactosidase (SA-β-Gal) assay has previously been described^9. Briefly, cells were fixed in 2% formaldehyde and 0.2% glutaraldehyde and washed with phosphate-buffered saline. Staining solution [40 mM Na2HPO4, 150 mM NaCl, 2 mM MgCl2, 5 mM K3Fe(CN)6, 5 mM K4Fe(CN)6, 1 mg/mL X-gal] was added with a multichannel pipette, and cells were incubated for 24 hrs. Cells were stained with DAPI (0.15 μg/mL) to visualize nuclei.
(§1) Cells with β-galactosidase (blue) positivity within the cytosol were considered positive. Cells were stained with DAPI to visualize nuclei and SAHF. Cells with punctate spots within the nuclear compartment were considered SAHF positive. Cells were imaged using a Nikon Eclipse Ni fluorescence microscope as previously described^15. Three different fields of cells were counted (total cells counted >300). These experiments were performed in triplicate. Data from validation experiments is shown as a percentage of SA-β-gal or SAHF positive cells.
These cells were then utilized in the SA-β-gal assay to examine changes in expression of SA-β-gal activity.
(§2) Other than the control, all of the tested compounds are +H-Ras^G12V. Percentage of SA-β-gal and SAHF positive cells is shown with indicated standard deviation (SD). Total cells with SA-β-gal positive cells or SAHF positive cells were counted in three separate fields (totals cells counted >300). Experiments were performed in triplicate. p-value determined by t-test.

[2] = test system: primary fibroblasts (IMR90) transduced with H-RasG12V; experiment: Validation: senescence-associated heterochromatin foci (SAHF) positive cells by DAPI staining; type: cell-based, human; details: for % SAHF + Cells Avg: 250 nM inhibitor, +H-RasG12V IMR90, 9 days of culture, >300 cells counted, triplicate
Method: as §1
After 9 days of culture, we stained the cells with DAPI to visualize the formation of SAHF.
as §2

[3] = test system: primary human fibroblasts (IMR90) transduced with H-RasG12V; experiment: High-throughput senescence screen (SA-β-gal area and nuclei number, high-content imaging); type: cell-based; details: 250 nM, 96-well, normalized to DMSO control, hit = beyond one standard deviation
Method: We use a model system for DIS that involves overexpressing an activated Ras in normal human fibroblast (IMR90). Upon expression of Ras, these cells undergo senescence as measured by increased β-galactosidase activity. IMR90 cells are infected with retrovirus control (496) or Ras (493). IMR90 cells were transduced over two days (Day −1 and 0) with pBABE-HRasG12V. Cells were then plated into a 96-well plate at a predetermined density (1,000 cells/well) and selected with puromycin (1 ug/mL) for two days (Day 1 and 2). The initial number of cells per well (1,000) was optimized to avoid confluence-induced growth inhibition. […] Allowing the cells to undergo senescence ([…] after puromycin selection), on day 9, cells were subjected to a quantitative SA-β-gal assay (described below) and stained with DAPI to visualize nuclei, which allowed for quantification of cell number. […]
For the screen, four fluorescence and four phase contrast images were acquired from each well of the 96-well plates with an ImageXpress Micro high-content imaging system (Molecular Devices, Sunnyvale Calif.) using the 10× objective. […] Fluorescence images were used to record DAPI staining of cell nuclei. Images were analyzed utilizing the MultiWavelength Scoring module in METAXPRESS image analysis software (Molecular Devices). […]

[4] = test system: senescence; details: literature report; cited from earlier work
[5] = 250 nM, RAS-expressing cells, significance p<0.05 vs DMSO

| SMILES | % SA-β-Gal + Cells Avg [1] [%] | % SAHF + Cells Avg [2] [%] | Inhibition of oncogenic RAS-induced SAHF formation (validation, in words) [2, 5] | Reduction of expression of SA-β-gal activity (validation, in words) [1, 5] | Effect on SA-β-gal area and cell number (nuclei) in initial screen [3] | Prevention of senescence (reported) [4] |
| --- | --- | --- | --- | --- | --- | --- |
| Cc1nc2cc3nc(-c4cccs4)cnc3cc2n1C [22617-28-8, AGL2043] | 10.9 | 10.2 | – | – | – | – |
| O=c1c2ccccc2[nH]c(=S)n1CCN1CCC(=C(c2ccc(F)cc2)c2ccc(F)cc2)CC1 [120166-69-0, Diacylglycerol Kinase Inhibitor II] | 5.2 | 10.4 | – | – | – | – |
| COc1ccc(S(=O)(=O)N(CCO)c2ccccc2CN(C)CC=Cc2ccc(Cl)cc2)cc1 [139298-40-1, KN-93] | 8.1 | 12.3 | – | – | – | – |
| CCc1[nH]c(-c2ccc(OC)cc2)nc1-c1ccncc1 [172747-50-1, SB 202474] | 6.7 | 10.4 | – | – | – | – |
| COc1cc2ncnc(Nc3cccc(Cl)c3)c2cc1OC [175178-82-2, AG 1478] | 3.8 | 11.5 | – | – | – | – |
| O=c1c(-c2ccc(F)cc2)c(-c2ccncc2)[nH]n1-c1ccc(Cl)cc1 [219138-24-6, P38 MAPK Inhibitor] | 5.8 | 16.3 | – | – | – | – |
| O=C1NC(=O)C(c2cn(CCCn3ccnc3)c3ccccc23)=C1Nc1ccccc1 [257879-35-9, PKC β Inhibitor] | 5.5 | 8.3 | – | – | – | – |
| O=C(Nc1ccc(Cl)cc1)c1ccccc1NCc1ccncc1 [269390-69-4, VEGFR Tyrosine Kinase Inhibitor II] | 4.1 | 13.0 | – | – | – | – |
| Cn1sc(=O)n(Cc2ccccc2)c1=O [327036-89-5, GSK3β Inhibitor I] | 6.5 | 7.8 | – | – | – | – |
| COc1cc2nccc(Oc3ccc(NC(=S)NC(=O)c4ccccc4C)cc3)c2cc1OC [347155-76-4, PDGFR Tyrosine Kinase Inhibitor V] | 6.7 | 16.3 | – | – | – | – |
| Oc1cccc(-c2nc(N3CCOCC3)c3oc4ncccc4c3n2)c1 [371935-74-9, PI-103] | 4.7 | 43.0 | failed to prevent SAHF formation | – | – | – |
| Cc1cc(Nc2nc(-c3ccccc3)nc3ccccc23)n[nH]1 [404828-08-6, GSK-3 Inhibitor XIII] | 8.2 | 7.0 | – | – | – | – |
| NC(=O)c1ccc2nc(-c3ccc(Oc4ccc(Cl)cc4)cc3)[nH]c2c1 [516480-79-8, Chk2 Inhibitor II] | 7.4 | 13.2 | – | – | – | – |
| O=c1[nH]c2ccccc2n1C1CCN(Cc2ccc(-c3nc4cc5[nH]cnc5cc4nc3-c3ccccc3)cc2)CC1 [612847-09-3, Akt Inhibitor VIII] | 21.3 | 11.3 | – | failed to reduce SA-β-gal activity | – | – |
| O=C1NC(=O)/C(=C/c2ccc3c(c2)OC(F)(F)O3)S1 [648449-76-7] | 20.7 | 26.9 | – | – | no effect on SA-β-gal area or cell number | – |
| Cc1[nH]c(/C=C2\C(=O)Nc3ccc(S(=O)(=O)N(C)c4cccc(Cl)c4)cc32)c(C)c1C(=O)N1CCN(C)CC1 [658084-23-2, Met Kinase inhibitor] | 5.0 | 14.7 | – | – | – | – |
| c1cc(-c2cnn3cc(-c4ccc(OCCN5CCCCC5)cc4)cnc23)ccn1 [866405-64-3, AMPK Compound C] | 4.4 | 15.9 | – | – | – | reported to prevent senescence |
| O=C(Nc1cccc(Nc2nccc(Nc3cccc(C(F)(F)F)c3)n2)c1)C1CC1 [879127-16-9, Aurora Kinase Inhibitor III] | 5.7 | 15.8 | – | – | – | – |
